The values that follow come from patent publication US20230136824A1, “N-N-[…] (DMT) AND DMT ANALOG COMPOSITIONS, METHODS OF MAKING, AND METHODS OF USE THEREOF” (ATAI Life Sciences AG, priority 2021, published 2023).

Values after ≈ are worked out from the molar mass of the structure shown.

A short description of data set [1]: Physicochemical constants of DMT (log P, pKa, glass transition temperature). Conditions: amorphous N,N-DMT. The text has this:
DMT free base is a lipophilic molecule (log P−2.573) with a small backbone (Mol wt. 188.27 g/mol).
The pH of the film plays a very important role in balancing its ionized vs unionized form at the site. In the present invention microenvironmental pH is maintained to achieve balance between ionized and unionized form and thus the permeation across the mucosa.

Data set [2] in a line: Ex-vivo permeation through porcine buccal mucosa (Franz diffusion cell). The format is in vitro ADME. Conditions: 180 minutes, phosphate buffered solution 0.01M pH=7. On the procedure: Further, permeability of DMT through prepared films were evaluated using ex-vivo permeation study i.e., using porcine buccal mucosa as presented below. Ex-vivo permeation is well studied using Franz diffusion cell or Using chambers utilizing animal mucosa (e.g., Pig or sheep buccal mucosa) or by using commercially available synthetic membranes (e.g., Permeapad®). The Franz diffusion cell consists of two compartments; one is the donor compartment, the other is the receptor compartment of 18 mL capacity and having 0.785 cm^2 effective diffusion area. The temperature is maintained at 37° C. by water jacket. […]
Further, all prepared films are evaluated for the permeability through pig buccal mucosa and compared against the permeability of API dispersion in PBS pH 7.0 as presented in FIG. 6. In one aspect, the present invention involves a DMT polymeric film that releases about 5% or less DMT in 60 minutes, about 15% DMT or less in 180 minutes when measured through pig mucosa in phosphate buffered solution 0.01M pH=7, as shown in FIG. 6.
Further, permeability of DMT through prepared films were evaluated using ex-vivo permeation study i.e., porcine buccal mucosa or Permeapad® as presented below.

Data set [3] is described as follows: Excipient compatibility of DMT binary mixtures at 50° C./75% RH (HPLC impurity levels). In kind it is physicochemical. Here is the method: Further, several excipients for formulating transmucosal films with desired properties have been analyzed for compatibility with DMT at 50° C./75% RH utilizing HPLC method to detect impurity levels.
Data set [4] can be described thus: Solubility of buccal film and neat API in Phosphate buffer saline pH 6.8. In kind it is physicochemical.
Data set [5] is described as follows: DMT solubility in various solvents (super saturated mixture, HPLC). The format is physicochemical. From the text: Solubility studies of DMT have been carried out in various solvents by preparing super saturated mixture and analyzed using HPLC.
This warrants a strong need for improvement solubility of DMT API in the film formulation for better bioavailability.

A short description of data set [6]: Forced degradation study of DMT under stress conditions (HPLC). In kind it is physicochemical. The note with it: for % Assay: exposure overnight. On the procedure: A forced degradation study of DMT was performed under different stress conditions and samples are analyzed using HPLC.
It is important to incorporate antioxidant(s) in the formulation to prevent oxidation of DMT during the shelf life and to form stable films.

The nature of data set [7]: pH of the donor chamber media in permeation study. The note with it: PBS pH 7.0. In kind it is physicochemical.

As to `CN(C)CCc1c[nH]c2ccccc12` [DMT, N, N-Dimethyltryptamine], the Glass transition temperature in data set [1] is −18 °C. For the same compound, the “DMT released through pig mucosa” value in data set [2] is listed as “about 33%”. In data set [3], the “No. of Impurities” value amounted to 6. The “Total Impurities %” value in data set [3] was found to be 2.17%. In addition, the solubility is 2.3 mg/mL (≈ 12.2 mM) in data set [4]; 2.3 mg/mL (≈ 12.2 mM) in data set [5] (Saliva Buffer (pH 6.8)); more than 126 mg/mL in data set [5] (acetone); more than 94 mg/mL in data set [5] (acetonitrile); more than 98 mg/mL in data set [5] (ethanol); more than 98 mg/mL in data set [5] (isopropyl alcohol water). Also, the solubility is more than 98 mg/mL in data set [5] (methanol); 26 mg/mL (≈ 138 mM) in data set [5] (methanol:water (50:50)); more than 50 mg/mL in data set [5] (methanol:water (70:30)); more than 90 mg/mL in data set [5] (methyl isobutyl ketone); more than 104 mg/mL in data set [5] (p-dioxane); more than 106 mg/mL in data set [5] (tetrahydrofuran). Besides, the solubility in data set [5] (water) is less than 1 mg/mL. The “Oxidation upon force degradation study” value in data set [6] is “highly prone to oxidation”. Further, the “% Assay” value in data set [6] (0.1N HCl) is 99.7%; in data set [6] (0.1N NaOH) it was 99.4%; in data set [6] (3% peroxide) it was 26.6%; in data set [6] (70° C.), 98.5%. Besides, in data set [7], the “pH of the donor chamber media” value worked out at 9.5.
